Test results taken from patent publication US20250256096A1 (priority 2022, published 2025).
Values joined by “and” are separate entries in the source; they are usually repeats but may differ in a detail not shown here. Identical values can stand only once. Like-named read-outs stand apart in the source and are kept apart here.

System: cervical vagus nerve
Assay type: in vivo, Adult male Lewis rats
Settings: for vagal nerve activity as detected by spike count analysis of electroneurograms: application directly to the cervical vagus nerve; for vagal nerve activity as detected by spike count analysis of electroneurograms / nerve firing of the main cervical vagus nerve: result in words; for nerve firing of the main cervical vagus nerve: intradermal application to trigeminal dermatomes on the forehead
[1] = intradermal application on forehead near trigeminal nerve endings, high (100 nM) concentration, mean +/- SEM

Compound | vagal nerve activity as detected by spike count analysis of electroneurograms | cervical vagus nerve average spike count [1] | cervical vagus nerve average spike count (intradermal application on forehead near trigeminal nerve endings, low (10 nM) concentration, mean +/- SEM) | nerve firing of the main cervical vagus nerve | effect on spike count (low (10 nM) or high (100 nM) concentrations directly on the cervical vagus nerve, data not shown) | cervical vagus nerve average spike count (high (100 nM) concentration applied directly on the cervical vagus nerve, mean +/- SEM) | cervical vagus nerve average spike count (low (10 nM) concentration applied directly on the cervical vagus nerve, mean +/- SEM, POST 60-s segment) | cervical vagus nerve average spike count (rat, in vivo)
CC(C)C[C@H](NC(=O)c1cc2ccccc2s1)C(=O)N1CCN(C(=O)[C@H](CO)NS(=O)(=O)c2ccc(Cl)cc2Cl)CC1 [GSK1016790A] | increased | 13.8+/−1.0 spikes/second | 7.0+/−0.5 spikes/second | activated | no effect |  |  | 
COc1cc(CNC(=O)CCCC/C=C/C(C)C)ccc1O [Capsaicin, capsaicin] | increased | 13.5+/−0.5 spikes/second |  | activated |  | 14.5+/−0.7 spikes/second | 7.6+/−0.7 spikes/second | 
capsaicin |  |  |  |  |  |  |  | 11.2+/−0.6 spikes/second and 17.7+/−0.8 spikes/second and 9.6+/−0.5 spikes/second
WS-12 | increased |  |  | activated |  |  |  | 
